1 compound from patent US20220370416A1, “COMPOUNDS AND METHODS FOR TARGETED DEGRADATION OF KRAS” (Arvinas Operations, Inc., priority 2020, published 2022) can be followed below.

What all share (type): cell-based
Assay [1] concerns the target T1, KRAS^G12C (Homo sapiens, UniProt P01116, G12C). In words: KRAS^G12C degradation by immunoblot in MIA PaCa-2 cells. The arrangement: MRTX849-VHL bifunctional compounds engage and degrade endogenous KRAS^G12C in NCI-H2030 cells; endogenous in cells; host or cells: NCI-H2030, NCI-H358, MIA PaCa-2, SW1573, NCI-H23. Conditions: for KRAS, two-way ANOVA significance vs DMSO: FIG. 10A. Here is the method: NCI-H2030 (CRL-5914), MIA PaCa-2 (CRL-1420), NCI-H23 (CRL-5800), NCI-H358 (CRL-5807), and HCT-116 (CCL-247) cells were obtained from ATCC, expanded immediately, and frozen down. Vials were thawed and used within 20 passages. SW1573 cells were a gift from Arvinas and were handled in the same manner. NCI-H2030, NCI-H23, and NCI-H358 were cultured in RPMI (ATCC30-2001) supplemented with 10% FBS (Biological Industries; cat. no. S1480) and 1% Penicillin-Streptomycin (ThermoFisher; cat. no. 15140122). HCT-116 cells were maintained in high glucose DMEM (ThermoFisher; cat. no. 11965084) supplemented as above. MIA PaCa-2 cells were cultured in high glucose DMEM supplemented with 10% FBS, 2.5% horse serum (ThermoFisher; cat. no. 26050-088; lot 2109875), and 1% Penicillin-Streptomycin. SW1573 cells were maintained in DMEM/F12 Nutrient Mix with GlutaMAX supplement (ThermoFisher; cat. no. 10565018) with 10% FBS and 1% Penicillin-Streptomycin added. DPBS (ThermoFisher; cat. no. 14190250) was used to wash cells and 0.25% Trypsin-EDTA (ThermoFisher; cat. no. […]) was used to detach cells for passaging. […] The VHL ligand was generously provided by Arvinas.
Between 2.5×10^5 and 6.0×10^5 cells were seeded into 6-well plates (Corning; cat. no. 353046). The next day, media was removed and cells were treated with 2.5 μM LC-2 for 1, 2, 4, 8, 12, or 24 hours. […] For 24-hour time course experiments, cells were treated at the indicated times and concurrently lysed in RIPA buffer supplemented as described previously. For longer time course experiments and time courses in which cells were treated with LC-2 or LC-2 Epimer, cells were concurrently treated with either compound, then lysed by scraping in RIPA buffer at the indicated time points.
Cell lysates were clarified at 21000×g for 15 mins at 4° C. Protein levels were quantified using a 50:1 mixture of bicinchoninic acid solution (Millipore Sigma; cat. no. B9643) and 4% (w/v) copper(II) sulfate solution (Millipore Sigma; cat. no. C2284) incubated at 37° C. for 30 mins. Absorbance values at 560 nm were read on an EnVision 2101 Multilabel Reader (PerkinElmer). Proteins were separated using 26 well Criterion TGX precast 4-15% (cat. no. 5671085) or 8-16% (cat. no. 5671105) gradient midi gels. After separation, proteins were transferred to nitrocellulose or PVDF membranes at 76 V for 2 hours at 4° C. Blots were then blocked in 5% milk in tris-buffered saline with Tween-20 (TBST; 20 mM Tris, 150 mM NaCl, 0.02% Tween-20). After blocking, blots were incubated in primary antibody overnight (12-18 hours) at 4° C. or for 2 hours at room temperature with mild agitation at the manufacturer's indicated dilution in either 5% milk or 5% BSA in TBST. Blots were then washed thrice with TBST for 5 mins at room temperature. After washing, blots were incubated with 1:5,000-1:10,000 of donkey anti-rabbit (GE Life Sciences; NA934) or sheep anti-mouse (GE Life Sciences; NA931) secondary antibody diluted in 5% milk for 1 hour at room temperature with mild agitation. Blots were again washed thrice with TBST for 5 mins. Chemiluminescent signal was generated using Amersham ECL Prime Western Blotting Detection Reagant (GE Life Sciences; cat. no. RPN2232) or SuperSignal West Femto Maximum Sensitivity Substrate (ThermoFisher; cat. no. 34095). Images were obtained using a Bio-Rad ChemiDoc Imager. Fluorescent α-tubulin images were collected with the Bio-Rad ChemiDoc Imager using an Alexa488 filter. The primary antibodies used in this work include: KRAS (LSBio; clone 2C1; cat. no. LS-C175665), p-p42/44 MAPK (phospho T202/Y204) (pErk; Cell Signaling Technologies (CST); cat. no. 4370S or 9106S), p42/44 MAPK (Erk1/2; CST; cat. no. 4695S), alpha-tubulin (CST; 2144S), and alpha-tubulin w/AlexaFluor488 (Millipore; cat. no. 16-232).
Band intensities were quantified using BioRad's Image Lab Software.
A general note: Immunoblotting shows a protein as a band on a membrane.

For the next assay, the target named is T2, KRAS^G12D (Homo sapiens, UniProt P01116, G13D).
T2 construct: KRAS degradation was examined in HCT 116 cells, which harbor a heterozygous KRAS^G13D mutation; endogenous in cells; host or cells: HCT116
Description: KRAS^G12D degradation in HCT116 cells (specificity). Conditions: HCT116 cells (FIG. 3B).

Another assay has as its target T3, KRAS^G13D (Homo sapiens, UniProt P01116, G13D).
T3 construct: endogenous in cells; host or cells: HCT116
In words: KRAS degradation by immunoblot in HCT 116 cells (specificity). Conditions: up to 10 μM. The source says: MRTX is known to be selective for mutant KRAS^G12C over other KRAS mutants (Hallin et al. 2020). To explore the specificity of LC-2, KRAS degradation was examined in HCT 116 cells, which harbor a heterozygous KRAS^G13D mutation.
NCI-H2030 (CRL-5914), MIA PaCa-2 (CRL-1420), NCI-H23 (CRL-5800), NCI-H358 (CRL-5807), and HCT-116 (CCL-247) cells were obtained from ATCC, expanded immediately, and frozen down. Vials were thawed and used within 20 passages. SW1573 cells were a gift from Arvinas and were handled in the same manner. […]
Cell lysates were clarified at 21000×g for 15 mins at 4° C. Protein levels were quantified using a 50:1 mixture of bicinchoninic acid solution (Millipore Sigma; cat. no. B9643) and 4% (w/v) copper(II) sulfate solution (Millipore Sigma; cat. no. C2284) incubated at 37° C. for 30 mins. Absorbance values at 560 nm were read on an EnVision 2101 Multilabel Reader (PerkinElmer). […]
Band intensities were quantified using BioRad's Image Lab Software. Total KRAS levels were examined by quantifying levels of both conjugated KRAS^G12C and unbound KRAS (wt or mutant) using an analysis box that spanned the two bands. This same sized box was used to quantify unbound KRAS in DMSO treated samples to account for background, except for LC-2 Epimer in FIGS. 6A and 6B. […]

Assay [2] deals with T1, KRAS^G12C. In words: KRAS^G12C degradation in heterozygous NCI-H23 cells. More on the design: endogenous in cells; host or cells: NCI-H23.

For orientation: DC50 means the concentration giving 50% degradation. A higher DC50 goes with a less potent degrader. Usually Dmax stands for the largest share of the target that was removed.

`C=C(F)C(=O)N1CCN(c2nc(OC[C@@H]3CCCN3CCCOCCC(=O)N[C@H](C(=O)N3C[C@H](O)C[C@H]3C(=O)NCc3ccc(-c4scnc4C)cc3)C(C)(C)C)nc3c2CCN(c2cccc4cccc(Cl)c24)C3)C[C@@H]1CC#N` [LC-2, (2S,4R)-1-((S)-2-(3-(3-((S)-2-(((7-(8-chloronaphthalen-1-yl)-4-((S)-3-(cyanomethyl)-4-(2-fluoroacryloyl)piperazin-1-yl)-5,6,7,8-tetrahydropyrido[3,4-d]pyrimidin-2-yl)oxy)methyl)pyrrolidin-1-yl)propoxy)propanamido)-3,3-dimethylbutanoyl)-4-hydroxy-N-(4-(4-methylthiazol-5-yl)benzyl)pyrrolidine-2-carboxamide] gave a DC50 on KRAS^G12C [1] (MIA PaCa2, homozygous KRAS^G12C) of 320 ± 80 nM. This compound gave a Dmax on KRAS^G12C [1] (MIA PaCa-2) above 75%. In addition, the “duration of KRAS degradation” value at KRAS^G12C [1] (MIA PaCa-2, 2.5 μM) is “sustained up to 72 hours”. The “time to maximal KRAS degradation” value on KRAS^G12C [1] (MIA PaCa-2, 2.5 μM, 6, 24, 48, 72 hours) was at most 24 h. Also, the “KRAS, two-way ANOVA significance vs DMSO” value on KRAS^G12C [1] (MIA PaCa-2, 2.5 μM, 6 hours) is “** (** p < 0.01)”; on KRAS^G12C [1] (MIA PaCa-2, 2.5 μM, 24 hours) it was “** (** p < 0.01)”. Moreover, on KRAS^G12D, the “degradation of KRAS^G12D” value is reported as “does not degrade KRAS^G12D”. In addition, on KRAS^G13D, the “engagement or degradation of KRAS^G13D” value was “No engagement or degradation”. In addition, the “rescue of induced KRAS^G12C degradation (mechanism)” value on KRAS^G12C [2] (NCI-H23 cells, neddylation inhibition vs inhibition of lysosomal acidification (FIG. 5B)) is listed as “Inhibition of neddylation, but not inhibition of lysosomal acidification, rescues”. Further, on KRAS^G12C [2] (heterozygous NCI-H23 cells (FIG. 4D)), the “induction of KRAS^G12C degradation” value is recorded as “induces KRAS^G12C degradation”.
